Values of other authors as cited in US9198974B2, “Decorated macromolecular scaffolds” (Mintaka Foundation for Medical Research, priority 2011, dated 2015).

Conditions: meta-substituted aniline; listed as gives the substituent

Compound	pKa, m-
Cc1cccc(N)c1 [m-CH3—]	4.67
Nc1cccc(C(=O)O)c1 [m-HO2C—]	3.05
CCOc1cccc(N)c1 [m-C2H5O—]	4.17
CSc1cccc(N)c1 [m-CH3S—]	4.40
Nc1cccc(Br)c1 [m-Br—]	3.51
Nc1cccc(S(=O)(=O)O)c1 [m-O3S—]	3.32
Nc1cccc(N)c1 [m-H2N—]	4.88
CCOC(=O)c1cccc(N)c1 [m-C2H5O2C—]	2.38
Nc1cccc([N+](=O)[O-])c1 [m-O2N—]	2.45
Nc1cccc(C(F)(F)F)c1 [m-F3C—]	2.57
Nc1cccc(-c2ccccc2)c1 [m-C6H5—]	4.18
COc1cccc(N)c1 [m-CH3O—]	4.20
Nc1cccc(Cl)c1 [m-Cl—]	3.32
Nc1cccc(O)c1 [m-HO—]	4.17
COC(=O)c1cccc(N)c1 [m-CH3O2C—]	3.56
Nc1cccc(F)c1 [m-F—]	3.38

Same assay, conditions: ortho-substituted aniline; listed as gives the substituent

Compound	pKa, o-
Nc1ccccc1O [o-HO—]	4.72
Nc1ccccc1C(=O)O [o-HO2C—]	2.04
Cc1ccccc1N [o-CH3—]	4.38
Nc1ccccc1[N+](=O)[O-] [o-O2N—]	−0.28
Nc1ccccc1F [o-F—]	2.96
Nc1ccccc1C(F)(F)F [o-F3C—]	3.49
CCOc1ccccc1N [o-C2H5O—]	4.47
Nc1ccccc1N [o-H2N—]	4.47
Nc1ccccc1-c1ccccc1 [o-C6H5—]	3.78
CSc1ccccc1N [o-CH3S—]	4.05
Nc1ccccc1S(=O)(=O)O [o-O3S—]	3.80
Nc1ccccc1Br [o-Br—]	2.6
CC(C)(C)c1ccccc1N [o-(CH3)3C—]	3.78
Nc1ccccc1Cl [o-Cl—]	2.62
CCOC(=O)c1ccccc1N [o-C2H5O2C—]	2.10
COC(=O)c1ccccc1N [o-CH3O2C—]	2.16
COc1ccccc1N [o-CH3O—]	4.49

Same assay, conditions: preferred aniline catalysts

Compound	pKa
CCOc1ccc(N)cc1 [p-C2H5O—, 4-ethoxy aniline]	5.2
